Patent publication US20260138970A1, “MODULATORS OF THE CALCIUM SIGNALING CASCADE” (FONDAZIONE TELETHON ETS, priority 2022, published 2026)

Assays:
[1] = system: protease-activated receptors; assay: Fluo-4 Ca2+ assay, SLIGR-NH2 stimulus, HEKR2 cells; format: cell-based; details: SLIGR-NH2 4 μM; compounds 10 μM; FIG. 5C bottom
Experimental: Experiments were performed using the microplate reader described for the HS-YFP assay. FRT and HEK293 cells were cultured until confluence in 96-well microplates (3603, Corning). Cells were washed 2 times with PBS (150 μl/wash) and then loaded for 1 h at 37° C. with 5 μM Fluo-4/AM (Thermo Fisher Scientific; catalog number: F23917) in PBS containing 10 mM glucose, 0.5 mM sulfinpyrazone, and 1% fetal bovine serum. After loading, cells were washed 2 times with PBS-glucose-sulfinpyrazone (150 μl/wash) and incubated for 20 min at 37° C. with 60 μl of PBS plus 10 mM glucose and 0.5 mM sulfinpyrazone containing compounds of interest at 10 μM final concentration or vehicle. Each well was assayed individually. Fluo-4 fluorescence (500 nm excitation, 535 nm emission) was detected every 200 ms for 16-40 s. Two seconds after the start of fluorescence recording, the reader automatically injected 165 μl of a modified PBS containing 136 mM KCl instead of NaCl. This solution also contained 10 mM glucose, 0.5 mM sulfinpyrazone, and UTP or SLIGR-NH2 (CAS #171436-38-7) at a final concentration that depended on the specific cell type. […] The Fluo-4 fluorescence increase was quantified using a procedure compiled in Microsoft Excel after background subtraction and normalization for the initial value measured before UTP addition.

[2] = system: protease-activated and bradykinin receptors; details: protease-activated and bradykinin receptor agonists; cited from earlier work
TMEM16A = assay: HS-YFP assay in ITPR-defective HEK293 cells transiently transfected with TMEM16A; format: cell-based; details: UTP 5 μM, compound 10 μM, FIG. 2D
ITPR1 = ITPR1 (Homo sapiens, UniProt Q14643); assay: ci-IP3/PM uncaging assay in HEK293 cells with selective expression of ITPR1 (HEKR1); format: cell-based; set-up: host or cells: HEKR1 (HEK293); details: compounds 10 μM; FIG. 4B
Sequence of ITPR1 (Q14643 whole entry): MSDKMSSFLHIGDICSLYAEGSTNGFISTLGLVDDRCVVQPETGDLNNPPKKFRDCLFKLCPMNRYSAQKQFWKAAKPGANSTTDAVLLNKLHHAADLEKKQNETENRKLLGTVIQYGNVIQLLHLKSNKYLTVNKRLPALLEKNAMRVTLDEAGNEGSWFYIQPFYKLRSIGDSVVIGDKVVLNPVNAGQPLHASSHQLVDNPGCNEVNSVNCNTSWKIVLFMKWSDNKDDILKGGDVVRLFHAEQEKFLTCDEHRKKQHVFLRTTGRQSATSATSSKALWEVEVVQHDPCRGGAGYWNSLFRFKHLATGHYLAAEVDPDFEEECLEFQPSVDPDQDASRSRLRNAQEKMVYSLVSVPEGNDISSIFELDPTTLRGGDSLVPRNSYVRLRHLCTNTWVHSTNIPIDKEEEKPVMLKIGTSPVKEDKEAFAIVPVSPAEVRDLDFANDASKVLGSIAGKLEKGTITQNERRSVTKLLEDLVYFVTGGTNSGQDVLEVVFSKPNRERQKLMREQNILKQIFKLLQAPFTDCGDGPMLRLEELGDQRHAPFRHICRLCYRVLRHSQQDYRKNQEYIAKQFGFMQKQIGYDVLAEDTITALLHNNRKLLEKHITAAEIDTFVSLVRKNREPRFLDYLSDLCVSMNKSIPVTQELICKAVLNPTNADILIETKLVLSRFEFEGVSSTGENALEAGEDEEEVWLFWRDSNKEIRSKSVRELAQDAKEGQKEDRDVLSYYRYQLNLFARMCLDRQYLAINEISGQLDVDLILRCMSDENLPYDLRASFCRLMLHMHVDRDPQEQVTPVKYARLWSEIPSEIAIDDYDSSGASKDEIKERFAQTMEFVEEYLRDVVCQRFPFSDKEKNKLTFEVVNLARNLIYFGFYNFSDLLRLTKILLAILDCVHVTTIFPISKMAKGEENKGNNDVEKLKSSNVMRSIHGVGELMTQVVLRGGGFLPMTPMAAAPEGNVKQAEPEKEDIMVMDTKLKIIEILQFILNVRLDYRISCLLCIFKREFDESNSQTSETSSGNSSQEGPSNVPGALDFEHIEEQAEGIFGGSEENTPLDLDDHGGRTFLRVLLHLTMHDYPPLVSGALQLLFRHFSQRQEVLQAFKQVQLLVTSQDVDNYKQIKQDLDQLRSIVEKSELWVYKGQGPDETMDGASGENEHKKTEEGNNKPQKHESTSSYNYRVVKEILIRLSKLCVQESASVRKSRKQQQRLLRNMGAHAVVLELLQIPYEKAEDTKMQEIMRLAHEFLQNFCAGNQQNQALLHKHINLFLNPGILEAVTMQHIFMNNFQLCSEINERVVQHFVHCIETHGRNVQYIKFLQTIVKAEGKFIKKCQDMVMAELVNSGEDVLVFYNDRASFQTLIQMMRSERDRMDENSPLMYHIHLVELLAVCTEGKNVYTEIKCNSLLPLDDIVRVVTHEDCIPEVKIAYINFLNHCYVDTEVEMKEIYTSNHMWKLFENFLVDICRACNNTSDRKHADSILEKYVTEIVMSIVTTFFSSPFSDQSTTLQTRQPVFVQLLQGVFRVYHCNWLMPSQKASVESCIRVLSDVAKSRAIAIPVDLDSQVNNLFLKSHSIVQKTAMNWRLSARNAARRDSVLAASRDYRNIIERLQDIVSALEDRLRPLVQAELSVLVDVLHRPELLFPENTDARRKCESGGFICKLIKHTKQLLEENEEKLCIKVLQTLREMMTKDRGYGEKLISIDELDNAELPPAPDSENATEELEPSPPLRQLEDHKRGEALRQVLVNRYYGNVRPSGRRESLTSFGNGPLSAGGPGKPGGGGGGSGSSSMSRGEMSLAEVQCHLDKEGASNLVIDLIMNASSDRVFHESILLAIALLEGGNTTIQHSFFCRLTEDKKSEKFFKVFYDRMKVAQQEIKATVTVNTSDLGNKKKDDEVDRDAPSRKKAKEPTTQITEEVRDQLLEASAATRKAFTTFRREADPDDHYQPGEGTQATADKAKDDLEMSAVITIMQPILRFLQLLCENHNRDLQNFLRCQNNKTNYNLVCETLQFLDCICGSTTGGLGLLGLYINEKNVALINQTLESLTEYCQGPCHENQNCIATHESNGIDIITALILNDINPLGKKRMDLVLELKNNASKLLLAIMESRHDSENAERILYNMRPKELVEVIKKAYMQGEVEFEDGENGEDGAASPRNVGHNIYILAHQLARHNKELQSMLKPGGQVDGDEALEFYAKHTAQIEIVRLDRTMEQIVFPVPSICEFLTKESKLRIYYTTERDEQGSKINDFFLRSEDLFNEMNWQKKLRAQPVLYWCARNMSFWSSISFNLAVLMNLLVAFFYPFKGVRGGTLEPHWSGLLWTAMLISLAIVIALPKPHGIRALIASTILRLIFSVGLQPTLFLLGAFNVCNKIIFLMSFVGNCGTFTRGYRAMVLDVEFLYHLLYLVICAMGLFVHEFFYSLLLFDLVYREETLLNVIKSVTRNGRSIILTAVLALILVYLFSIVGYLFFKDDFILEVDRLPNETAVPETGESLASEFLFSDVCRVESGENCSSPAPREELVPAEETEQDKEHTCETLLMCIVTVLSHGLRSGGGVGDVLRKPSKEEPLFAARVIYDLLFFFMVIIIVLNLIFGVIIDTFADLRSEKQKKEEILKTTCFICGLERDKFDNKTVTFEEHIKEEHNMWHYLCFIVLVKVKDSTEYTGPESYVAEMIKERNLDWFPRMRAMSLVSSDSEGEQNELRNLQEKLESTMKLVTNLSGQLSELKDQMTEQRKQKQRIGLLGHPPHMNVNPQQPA
Experimental: HEK293 cells totally devoid of ITPR expression (HEK3XKO) or with selective expression of ITPR1 (HEKR1), ITPR2 (HEKR2), or ITPR3 (HEKR3), obtained by selective gene ablation, were purchased from Kerafast (catalog number: EURO30, EURO31, EURO32, EURO33) and cultured in a mixture of Dulbecco's Modified Eagle Medium (DMEM, high glucose version) and Ham's F12 (1:1) and supplemented with 10% fetal bovine serum, 2 mM L-glutamine, 100 U/ml penicillin and 100 μg/ml streptomycin.
FRT and HEK293 cells were cultured in μ-Plate96 microplates (Ibidi) at subconfluent condition. Cells were washed 2 times with PBS (150 μl/wash) and then loaded for 45 min at 37° C. with 1 μM ci-IP3/PM (Tocris; catalog number: 6210/10U) and 5 μM Fluo-4/AM (Thermo Fisher Scientific) in PBS containing 10 mM glucose, 0.5 mM sulfinpyrazone and 1% fetal bovine serum. After 45 min, cells were further incubated for 1 h at 37° C. with a fresh PBS solution containing Fluo-4/AM, glucose, sulfinpyrazone, serum, but no ci-IP3/PM. […] Analysis was performed with MetaFluor software, by quantifying Fluo-4 fluorescence in manually selected single cell region of interest (ROI). […] After background subtraction, fluorescence traces were normalized for the initial value.

## OCc1ccccc1CN(Cc1ccnc(N2CCCC2)n1)c1ccc(F)cc1 [ARN4550, [2-[[4-Fluoro-N-[(2-pyrrolidin-1-ylpyrimidin-4-yl)methyl]anilino]methyl]phenyl]methanol]
[1]
  potentiation of SLIGR-NH2 stimulus (Ca2+ mobilization), HEKR2 cells: only compound that potentiated

## CCc1cc(-c2cc(NCCCOc3ccccc3C)nc(N)n2)n(C)n1 [ARN7149, 6-(3-Ethyl-1-methyl-1H-pyrazol-5-yl)-N^4-(3-(o-tolyloxy)propyl)pyrimidine-2,4-diamine]
[2]
  effectiveness by agonist inducing Ca2+ mobilization (UTP vs other GPCR agonists): only effective when Ca^2+ mobilization is induced by UTP

## CCn1nc2c(c1C(=O)Nc1ccccc1OCC1CCCCO1)CCCC2 (stereo not shown) [ARN11391, 2-Ethyl-N-[2-(tetrahydropyran-2-ylmethoxy)phenyl]-4,5,6,7-tetrahydroindazole-3-carboxamide]
TMEM16A
  activation of TMEM16A by UTP with/without compound (HS-YFP): no activation
ITPR1
  activity on Ca2+ mobilization by IP3 uncaging, cells with selective expression of ITPR1: uniquely effective
